Where a SMILES comes first, the peptide text is derived from it.
Experiments:
[1] = molecular target: T1, human importin α3 (Impα3) (Homo sapiens, UniProt O00629); assay: ITC binding of NLS-NUPR1 peptides / NUPR1 to Impα3; conditions: for ΔH (binding enthalpy), Impα3 / Kd / −TΔS (entropic contribution), Impα3 / n (stoichiometry; fraction of binding-competent protein), Impα3: ITC, 298 K; for ΔH (binding enthalpy), Impα3 / Kd / −TΔS (entropic contribution), Impα3: Tris 50 mM pH 8; for ΔH (binding enthalpy), Impα3: absolute error 0.5 kcal/mol; for Kd: importin 10–20 μM in cell, peptide 150–300 μM in syringe, 1:1 model, at least duplicates, relative error 30%, read-out: Kd (dissociation constant), Impα3; for −TΔS (entropic contribution), Impα3: calculated from Kd and ΔH, absolute error 0.7 kcal/mol; for n (stoichiometry; fraction of binding-competent protein), Impα3: absolute error 0.2, value in parenthesis = fixed in the fit due to low affinity; for Decrease of the affinity for Impα3 relative to wt peptide: from ITC Kd values
T1 construct: although the IBB region maintains its independence within the whole Impα3 in terms of conformation; His-tag (N); made in house; host or cells: Escherichia coli BL21 (DE3)
T1 sequence (O00629 1-521): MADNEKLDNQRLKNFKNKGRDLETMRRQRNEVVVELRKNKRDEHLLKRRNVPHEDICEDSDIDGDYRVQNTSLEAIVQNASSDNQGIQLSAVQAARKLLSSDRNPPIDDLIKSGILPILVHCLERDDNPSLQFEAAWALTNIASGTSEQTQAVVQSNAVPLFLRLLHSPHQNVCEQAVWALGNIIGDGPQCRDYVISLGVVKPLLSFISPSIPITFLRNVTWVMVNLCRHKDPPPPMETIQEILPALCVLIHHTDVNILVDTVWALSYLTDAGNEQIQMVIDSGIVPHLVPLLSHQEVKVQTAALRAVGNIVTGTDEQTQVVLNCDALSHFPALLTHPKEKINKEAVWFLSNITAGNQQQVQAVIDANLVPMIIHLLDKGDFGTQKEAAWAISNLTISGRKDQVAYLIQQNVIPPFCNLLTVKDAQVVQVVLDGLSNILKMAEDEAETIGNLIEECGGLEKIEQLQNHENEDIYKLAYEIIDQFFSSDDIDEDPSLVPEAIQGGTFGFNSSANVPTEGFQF
Procedure: (§1) The experimental set-up and data processing of ITC experiments has been described previously. Calorimetric titrations, performed in an Auto-iTC200 calorimeter (MicroCal, Malvern-Panalytical, Malvern, UK) consisted of series of 19 2-μL injections, with 150 s time spacing and a 750-rpm stirring speed. Impα3 or ΔImpα3 (at 10–20 μM) was loaded into the calorimetric cell and NLS-NUPR1 peptides in the syringe (150–300 μM); all solutions were prepared in buffer Tris 50 mM, pH 8. […] The binding affinity (association constant) and the binding enthalpy were estimated through a least-squares nonlinear regression data analysis, from which the Gibbs energy and the entropic contribution to the binding were calculated using well-known thermodynamic relationships. Since the binding stoichiometry is constrained by the model, the parameter n provides a fraction of the active or binding competent protein. Experiments for each peptide and importin species were performed, at least, in duplicates.

[2] = molecular target: T2, ΔImpα3 (importin α3 without the IBB domain, residues 64-521) (Homo sapiens, UniProt O00629); assay: ITC binding of NLS-NUPR1 peptides / NUPR1 to ΔImpα3; conditions: ITC, 298 K; for ΔH (binding enthalpy), ΔImpα3: absolute error 0.5 kcal/mol; for −TΔS (entropic contribution), ΔImpα3: calculated from Kd and ΔH, absolute error 0.7 kcal/mol; for n (stoichiometry; fraction of binding-competent protein), ΔImpα3: absolute error 0.2, value in parenthesis = fixed in the fit due to low affinity
T2 construct: The His-tagged ΔImpα3 (residues 64-521) was obtained from BL21 (DE3) cells as described; His-tag; made in house; host or cells: Escherichia coli BL21 (DE3)
T2 sequence (O00629 64-521): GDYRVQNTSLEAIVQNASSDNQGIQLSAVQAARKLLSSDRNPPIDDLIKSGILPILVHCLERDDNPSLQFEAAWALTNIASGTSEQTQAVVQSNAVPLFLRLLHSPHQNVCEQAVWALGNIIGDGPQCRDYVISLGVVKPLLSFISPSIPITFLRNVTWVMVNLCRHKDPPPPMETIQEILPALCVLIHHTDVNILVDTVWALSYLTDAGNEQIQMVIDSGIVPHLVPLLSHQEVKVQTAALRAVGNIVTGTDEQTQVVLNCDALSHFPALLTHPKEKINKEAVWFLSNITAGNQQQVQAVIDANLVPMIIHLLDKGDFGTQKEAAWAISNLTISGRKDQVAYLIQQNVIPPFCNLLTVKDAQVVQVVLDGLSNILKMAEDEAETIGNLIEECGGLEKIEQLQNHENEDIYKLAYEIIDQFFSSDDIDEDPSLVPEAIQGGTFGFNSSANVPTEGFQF
Procedure: as §1

[3] = Translational diffusion by NMR DOSY (hydrodynamic properties); format: physicochemical; conditions: for D, translational diffusion coefficient: 283 K, pH 7.2, 50-mM deuterated Tris, 100% D2O, peptide 120 μM; for Rh, hydrodynamic radius from D: from the translational diffusion coefficient of dioxane (Rh = 2.12 Å) added to each sample
Procedure: Concentrations of peptides in all DOSY experiments were 120 μM, and 128 scans, where the gradient strength was varied, were acquired for each curve. Translational self-diffusion measurements were performed with the pulsed gradient spin-echo sequence in the presence of 100% D2O. Experimental details have been described elsewhere. Briefly, the gradient strength was varied in sixteen linear steps between 2% and 95% of the total power of the gradient coil. The gradient strength was previously calibrated by using the value of the translational diffusion coefficient, D, for the residual proton water line in a sample containing 100% D2O in a 5-mm tube [34]. In our experiments for each peptide, the duration of the gradient was 2.25 ms, the time between the two pulse gradients in the pulse sequence was set to 200 ms, and the recovery delay between the bipolar gradients was set to 100 μs. The methyl groups with signals between 1.0 and 0.80 ppm were used for integration. Fitting of the exponential curves obtained from experimental data was carried out with KaleidaGraph (Synergy Software, Version 3.5), as described. A final concentration of 1% of dioxane, which was assumed to have a hydrodynamic radius Rh = 2.12 Å [34], was added to the solutions of each of the peptides to have a comparison for estimating their sizes.

| SMILES | ΔH (binding enthalpy), Impα3 [1] | Kd [1] | ΔH (binding enthalpy), ΔImpα3 ([2]; Tris 50 mM pH 8) | −TΔS (entropic contribution), ΔImpα3 ([2]; Tris 50 mM pH 8) | D, translational diffusion coefficient [3] | Rh, hydrodynamic radius from D [3] | −TΔS (entropic contribution), Impα3 [1] | n (stoichiometry; fraction of binding-competent protein), Impα3 [1] | Decrease of the affinity for Impα3 relative to wt peptide [1] | n (stoichiometry; fraction of binding-competent protein), ΔImpα3 [2] | Kd ([2]; Tris 50 mM pH 8, importin 10–20 μM in cell, peptide 150–300 μM in syringe, 1:1 model, at least duplicates, relative error 30%, read-out: Kd (dissociation constant), ΔImpα3) |
| --- | --- | --- | --- | --- | --- | --- | --- | --- | --- | --- | --- |
| CC(=O)N[C@@H](Cc1ccc(O)cc1)C(=O)N[C@H](C(=O)N[C@@H](CC(N)=O)C(=O)N[C@@H](CCCNC(=N)N)C(=O)N1CCC[C@H]1C(=O)N[C@@H](CO)C(=O)N1CCC[C@H]1C(=O)NCC(=O)NCC(=O)N[C@@H](Cc1c[nH]cn1)C(=O)N[C@@H](CCC(=O)O)C(=O)N[C@@H](CCCNC(=N)N)C(=O)N[C@@H](C)C(=O)N[C@@H](CC(C)C)C(=O)N[C@H](C(=O)N[C@@H](CCC(=O)O)C(=O)N[C@@H](C)C(=O)N[C@@H](CC(C)C)C(=O)N[C@@H](CCC(N)=O)C(=O)N[C@@H](CC(N)=O)C(=O)N[C@@H](CO)C(=O)N[C@@H](CCC(=O)O)C(N)=O)C(C)C)[C@@H](C)O [K65AT68EK69A] (Ac-YTNRPSPGGHERALVEALQNSE-NH2) | -16.3 kcal/mol | 27 µM | -28.5 kcal/mol | 22.2 kcal/mol | 2.4 ± 0.2 cm^2 s^−1 × 10^6 | 9 ± 2 Å | – | – | – | – | – |
| CC(=O)N[C@@H](Cc1ccc(O)cc1)C(=O)N[C@H](C(=O)N[C@@H](CC(N)=O)C(=O)N[C@@H](CCCNC(=N)N)C(=O)N1CCC[C@H]1C(=O)N[C@@H](CO)C(=O)N1CCC[C@H]1C(=O)NCC(=O)NCC(=O)N[C@@H](Cc1c[nH]cn1)C(=O)N[C@@H](CCC(=O)O)C(=O)N[C@@H](CCCNC(=N)N)C(=O)N[C@@H](C)C(=O)N[C@@H](CC(C)C)C(=O)N[C@H](C(=O)N[C@@H](CCC(=O)O)C(=O)N[C@@H](CCCCN)C(=O)N[C@@H](CC(C)C)C(=O)N[C@@H](CCC(N)=O)C(=O)N[C@@H](CC(N)=O)C(=O)N[C@@H](CO)C(=O)N[C@@H](CCC(=O)O)C(N)=O)C(C)C)[C@@H](C)O [K65AT68E] (Ac-YTNRPSPGGHERALVEKLQNSE-NH2) | -7.8 kcal/mol | – | -17.9 kcal/mol | 11.3 kcal/mol | 1.76 ± 0.06 cm^2 s^−1 × 10^6 | 12 ± 1 Å | 1.4 kcal/mol | – | – | – | – |
| CC(=O)N[C@@H](Cc1ccc(O)cc1)C(=O)N[C@H](C(=O)N[C@@H](CC(N)=O)C(=O)N[C@@H](CCCNC(=N)N)C(=O)N1CCC[C@H]1C(=O)N[C@@H](CO)C(=O)N1CCC[C@H]1C(=O)NCC(=O)NCC(=O)N[C@@H](Cc1c[nH]cn1)C(=O)N[C@@H](CCC(=O)O)C(=O)N[C@@H](CCCNC(=N)N)C(=O)N[C@@H](C)C(=O)N[C@@H](CC(C)C)C(=O)N[C@H](C(=O)N[C@H](C(=O)N[C@@H](CCCCN)C(=O)N[C@@H](CC(C)C)C(=O)N[C@@H](CCC(N)=O)C(=O)N[C@@H](CC(N)=O)C(=O)N[C@@H](CO)C(=O)N[C@@H](CCC(=O)O)C(N)=O)[C@@H](C)O)C(C)C)[C@@H](C)O [K65A] (Ac-YTNRPSPGGHERALVTKLQNSE-NH2) | -2.8 kcal/mol | – | -10.2 kcal/mol | 2.6 kcal/mol | 1.94 ± 0.08 cm^2 s^−1 × 10^6 | 11 ± 1 Å | -4.6 kcal/mol | 1.4 | two-fold | 1.4 | – |
| CC(=O)N[C@@H](Cc1ccc(O)cc1)C(=O)N[C@H](C(=O)N[C@@H](CC(N)=O)C(=O)N[C@@H](CCCNC(=N)N)C(=O)N1CCC[C@H]1C(=O)N[C@@H](CO)C(=O)N1CCC[C@H]1C(=O)NCC(=O)NCC(=O)N[C@@H](Cc1c[nH]cn1)C(=O)N[C@@H](CCC(=O)O)C(=O)N[C@@H](CCCNC(=N)N)C(=O)N[C@@H](CCCCN)C(=O)N[C@@H](CC(C)C)C(=O)N[C@H](C(=O)N[C@H](C(=O)N[C@@H](C)C(=O)N[C@@H](CC(C)C)C(=O)N[C@@H](CCC(N)=O)C(=O)N[C@@H](CC(N)=O)C(=O)N[C@@H](CO)C(=O)N[C@@H](CCC(=O)O)C(N)=O)[C@@H](C)O)C(C)C)[C@@H](C)O [K69A] (Ac-YTNRPSPGGHERKLVTALQNSE-NH2) | -10.8 kcal/mol | – | -21.3 kcal/mol | 14.3 kcal/mol | 1.79 ± 0.06 cm^2 s^−1 × 10^6 | 12 ± 2 Å | 4.0 kcal/mol | 1.3 | six-fold | 1.4 | – |
| CC(=O)N[C@@H](Cc1ccc(O)cc1)C(=O)N[C@H](C(=O)N[C@@H](CC(N)=O)C(=O)N[C@@H](CCCNC(=N)N)C(=O)N1CCC[C@H]1C(=O)N[C@@H](CO)C(=O)N1CCC[C@H]1C(=O)NCC(=O)NCC(=O)N[C@@H](Cc1c[nH]cn1)C(=O)N[C@@H](CCC(=O)O)C(=O)N[C@@H](CCCNC(=N)N)C(=O)N[C@@H](CCCCN)C(=O)N[C@@H](CC(C)C)C(=O)N[C@H](C(=O)N[C@@H](CCC(=O)O)C(=O)N[C@@H](C)C(=O)N[C@@H](CC(C)C)C(=O)N[C@@H](CCC(N)=O)C(=O)N[C@@H](CC(N)=O)C(=O)N[C@@H](CO)C(=O)N[C@@H](CCC(=O)O)C(N)=O)C(C)C)[C@@H](C)O [T68EK69A] (Ac-YTNRPSPGGHERKLVEALQNSE-NH2) | -7.5 kcal/mol | 17 µM | -21.2 kcal/mol | 14.7 kcal/mol | 1.87 ± 0.08 cm^2 s^−1 × 10^6 | 11 ± 1 Å | 1.0 kcal/mol | – | – | – | 17 µM |
| CC(=O)N[C@@H](Cc1ccc(O)cc1)C(=O)N[C@H](C(=O)N[C@@H](CC(N)=O)C(=O)N[C@@H](CCCNC(=N)N)C(=O)N1CCC[C@H]1C(=O)N[C@@H](CO)C(=O)N1CCC[C@H]1C(=O)NCC(=O)NCC(=O)N[C@@H](Cc1c[nH]cn1)C(=O)N[C@@H](CCC(=O)O)C(=O)N[C@@H](CCCNC(=N)N)C(=O)N[C@@H](CCCCN)C(=O)N[C@@H](CC(C)C)C(=O)N[C@H](C(=O)N[C@@H](CCC(=O)O)C(=O)N[C@@H](CCCCN)C(=O)N[C@@H](CC(C)C)C(=O)N[C@@H](CCC(N)=O)C(=O)N[C@@H](CC(N)=O)C(=O)N[C@@H](CO)C(=O)N[C@@H](CCC(=O)O)C(N)=O)C(C)C)[C@@H](C)O [T68E] (Ac-YTNRPSPGGHERKLVEKLQNSE-NH2) | -11.1 kcal/mol | – | -17.5 kcal/mol | 10.8 kcal/mol | 2.17 ± 0.06 cm^2 s^−1 × 10^6 | 10 ± 1 Å | 4.7 kcal/mol | – | – | – | – |
